The values below come from patent US20080194552A1, “Aminopyrimidine Derivatives With Tie2 Inhibiting Activity” (ASTRAZENECA AB, priority 2005, published 2008).

For this assay, the target named is T1, Tie2 receptor tyrosine kinase (Homo sapiens, UniProt Q02763).
T1 construct: one can use natural cell lines or primary cells which are known to express the receptor of choice; endogenous in cells; host or cells: EA.hy926/B3 cells (HUVEC named as an alternative)
The assay is described as follows: Cellular Tie2 autophosphorylation assay. Format: cell-based. The settings on record: whole cells, e.g. Ang1 ligand stimulated EA.hy926/B3 cells; read-out: IC50 Inhibition of autophosphorylation of Tie2 receptor tyrosine kinase. From the text:
The following assay can be used to measure the effects of the compounds of the present invention as inhibitors of Tie2 autophosphorylation in whole cells.
Cellular Tie2 Autophosphorylation Assay
This assay is based on measuring the ability of compounds to inhibit autophosphorylation of the Tie2 receptor which normally leads to the production of “activated” receptor that in turn initiates the particular signal transduction pathways associated with the receptor function.
Autophosphorylation can be achieved by a number of means. It is known that expression of recombinant kinase domains in baculoviral systems can lead to the production of phosphorylated and activated receptor. […]
Naturally if the ligand is available one can use natural cell lines or primary cells which are known to express the receptor of choice and simply stimulate with ligand to achieve ligand induced phosphorylation. The ability of compounds to inhibit autophosphorylation of the Tie2 receptor, which is expressed for example in EA.hy926/B3 cells (supplied by J. McLean/B. Tuchi, Univ. of N. Carolina at Chapel Hill, CB-4100, 300 Bynum Hall, Chapel Hill, N.C. 27599-41000, USA) or primary HUVEC (human umbilical vein endothelial cells—available from various commercial sources), can measured by this assay. […]

T1 sequence (Q02763 23-1124): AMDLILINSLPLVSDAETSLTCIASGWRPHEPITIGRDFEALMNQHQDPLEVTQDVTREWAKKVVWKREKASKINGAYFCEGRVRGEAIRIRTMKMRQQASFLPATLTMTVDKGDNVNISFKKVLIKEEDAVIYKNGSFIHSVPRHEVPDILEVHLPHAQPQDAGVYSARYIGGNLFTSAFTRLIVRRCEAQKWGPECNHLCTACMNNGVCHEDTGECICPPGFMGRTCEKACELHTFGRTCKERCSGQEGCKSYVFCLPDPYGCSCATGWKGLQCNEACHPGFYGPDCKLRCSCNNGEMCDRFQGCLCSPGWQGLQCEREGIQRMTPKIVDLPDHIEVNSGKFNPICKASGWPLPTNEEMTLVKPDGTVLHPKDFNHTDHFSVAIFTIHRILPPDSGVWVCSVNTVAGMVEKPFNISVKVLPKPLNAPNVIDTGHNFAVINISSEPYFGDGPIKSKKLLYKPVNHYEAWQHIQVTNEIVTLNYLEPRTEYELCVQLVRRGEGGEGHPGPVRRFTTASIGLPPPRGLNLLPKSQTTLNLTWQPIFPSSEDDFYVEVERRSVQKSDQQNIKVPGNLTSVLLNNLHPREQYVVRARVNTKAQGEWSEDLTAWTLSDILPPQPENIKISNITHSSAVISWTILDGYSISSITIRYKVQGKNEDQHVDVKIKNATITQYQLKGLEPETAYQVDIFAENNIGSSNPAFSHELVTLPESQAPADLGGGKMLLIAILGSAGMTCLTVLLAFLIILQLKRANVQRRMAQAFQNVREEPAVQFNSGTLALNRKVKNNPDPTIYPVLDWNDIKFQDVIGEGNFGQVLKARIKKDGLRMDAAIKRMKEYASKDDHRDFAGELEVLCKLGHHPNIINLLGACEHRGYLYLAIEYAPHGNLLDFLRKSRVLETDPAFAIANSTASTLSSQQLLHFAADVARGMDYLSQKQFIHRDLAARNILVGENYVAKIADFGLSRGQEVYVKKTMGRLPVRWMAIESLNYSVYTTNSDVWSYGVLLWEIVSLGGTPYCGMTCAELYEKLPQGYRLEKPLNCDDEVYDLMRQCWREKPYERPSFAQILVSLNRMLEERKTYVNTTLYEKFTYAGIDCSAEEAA

For the compound `Nc1ncc(C#Cc2ccc(C(=O)Nc3cc(C(F)(F)F)ccc3F)s2)cn1` [Example 1, 5-[(2-Aminopyrimidin-5-yl)ethynyl]-N-[2-fluoro-5-(trifluoromethyl)phenyl]thiophene-2-carboxamide], the IC50 (as a rule, the concentration at which inhibition is half-maximal) is 0.016 µM.
Next, `Nc1ncc(C#Cc2csc(C(=O)Nc3cc(C(F)(F)F)ccc3F)c2)cn1` [Example 2, 4-[(2-Aminopyrimidin-5-yl)ethynyl]-N-[2-fluoro-5-(trifluoromethyl)phenyl]thiophene-2-carboxamide]: 0.026 µM.
